# Reference: publication PMC2632775 (Nuclear medicine and biology, 2008)
# Read-outs that look alike come from different tables or passages of the source.
# What was measured:
# [1] = biological target: T1, VMAT2 binding sites in the pancreas (Rattus norvegicus, UniProt Q01827); test: Blocking studies of pancreatic uptake in rats; type: in vivo; conditions: for Blood uptake, Pretreatment / Pancreas uptake, Pretreatment: n=5, ± SD
# [2] = biological target: VMAT2 (Rattus norvegicus, UniProt Q01827); test: In vitro autoradiography using rat brain sections; type: binding; conditions: preliminary, data not shown
# [3] = biological target: T1, VMAT2 binding sites in the pancreas; conditions: rats, 60 min after tracer injection, ± SD, cited from earlier work
# [4] = rats, avg ± SD, cited from earlier work
# [5] = biological target: VMAT2 binding sites of beta cells in the pancreas (Rattus norvegicus, UniProt Q01827); conditions: rats, PET, post iv injection
# [6] = rats, iv
# [7] = 30 min after tracer injection, no pretreatment, n=4, ± SD
# [8] = 30 min after tracer injection, pretreatment of (+)DTBZ 3.3 mg/kg iv 5 min prior
# [9] = pretreatment of (+)2 3.5 mg/kg iv 5 min prior
# [10] = 60 min after tracer injection, no pretreatment, n=4, ± SD
# [11] = 60 min after tracer injection, pretreatment of (+)2 3.5 mg/kg iv 5 min prior
# T1 sequence (Q01827 whole entry): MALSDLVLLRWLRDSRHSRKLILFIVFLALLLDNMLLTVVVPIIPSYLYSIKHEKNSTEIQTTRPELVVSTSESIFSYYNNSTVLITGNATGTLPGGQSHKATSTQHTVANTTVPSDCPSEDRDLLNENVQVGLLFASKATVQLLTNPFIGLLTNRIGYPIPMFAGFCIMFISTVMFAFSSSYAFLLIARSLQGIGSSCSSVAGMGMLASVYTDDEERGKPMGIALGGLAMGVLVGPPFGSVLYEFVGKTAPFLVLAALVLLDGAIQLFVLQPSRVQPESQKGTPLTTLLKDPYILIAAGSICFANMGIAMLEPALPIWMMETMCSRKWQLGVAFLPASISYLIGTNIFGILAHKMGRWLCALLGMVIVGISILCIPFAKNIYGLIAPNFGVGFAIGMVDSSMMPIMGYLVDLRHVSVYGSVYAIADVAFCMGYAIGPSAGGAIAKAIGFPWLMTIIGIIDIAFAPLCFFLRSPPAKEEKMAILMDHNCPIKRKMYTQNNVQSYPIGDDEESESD
# Sequence of VMAT2 (Q01827 whole entry): as above
# Sequence of VMAT2 binding sites of beta cells in the pancreas (Q01827 whole entry): as above
smiles,measurement,setting,value
"COc1cc2c(cc1OCCC[18F])CCN1CC(CC(C)C)C(C3CO3)CC21 (stereo not drawn) [[^18F](−)4] [[^18F](−)-2-Oxiranyl-3-isobutyl-9-(3-fluoropropoxy)-10-methoxy-2,3,4,6,7, 11b-hexahydro-1H-pyrido[2,1-a]isoquinoline]",Displaceability of pancreas uptake,"[1]; 30 min, iv pretreatment of (+)DTBZ 3.3 mg/kg 5 min prior",non-displaceable
same,"Blood uptake, Control",[1]; [7],0.07 ± 0.00 %ID/g
same,"Pancreas uptake, Control",[1]; [7],0.22 ± 0.02 %ID/g
same,"Blood uptake, Pretreatment",[1]; [8],0.12 ± 0.03 %ID/g
same,"Pancreas uptake, Pretreatment",[1]; [8],0.22 ± 0.04 %ID/g
same,Labeling of rat brain sections (in vitro autoradiography),[2],no specific binding in any brain region
"COc1cc2c(cc1OCCC[18F])CCN1CC(CC(C)C)C(O)CC21 (stereo not drawn) [[^18F](+)2, [^18F](−)-2-Hydroyxl-3-isobutyl-9-(3-fluoropropoxy)-10-methoxy-2,3,4,6,7, 11b-hexahydro-1H-pyrido[2,1-a]isoquinoline]","Blood uptake, Control",[3]; no pretreatment,0.20 ± 0.02 %ID/g
same,"Pancreas uptake, Control",[3]; no pretreatment,4.93 ± 0.49 %ID/g
same,"Blood uptake, Pretreatment",[3]; [9],0.26 ± 0.04 %ID/g
same,"Pancreas uptake, Pretreatment",[3]; [9],1.11 ± 0.07 %ID/g
same,Blood uptake,[4]; 2 min,0.26 ± 0.03 %ID/g
same,Brain uptake,[4]; 2 min,0.71 ± 0.05 %ID/g
same,Heart uptake,[4]; 2 min,0.71 ± 0.07 %ID/g
same,Kidney uptake,[4]; 2 min,2.10 ± 0.17 %ID/g
same,Liver uptake,[4]; 2 min,3.53 ± 0.56 %ID/g
same,Lung uptake,[4]; 2 min,0.94 ± 0.04 %ID/g
same,Muscle uptake,[4]; 2 min,0.14 ± 0.03 %ID/g
same,Pancreas uptake,[4]; 2 min,2.51 ± 0.22 %ID/g
same,Skin uptake,[4]; 2 min,0.23 ± 0.05 %ID/g
same,Spleen uptake,[4]; 2 min,1.46 ± 0.15 %ID/g
same,Blood uptake,[4]; 30 min,0.23 ± 0.06 %ID/g
same,Brain uptake,[4]; 30 min,0.62 ± 0.08 %ID/g
same,Heart uptake,[4]; 30 min,0.41 ± 0.03 %ID/g
same,Kidney uptake,[4]; 30 min,1.06 ± 0.06 %ID/g
same,Liver uptake,[4]; 30 min,2.82 ± 0.24 %ID/g
same,Lung uptake,[4]; 30 min,0.69 ± 0.03 %ID/g
same,Muscle uptake,[4]; 30 min,0.17 ± 0.02 %ID/g
same,Pancreas uptake,[4]; 30 min,5.50 ± 0.97 %ID/g
same,Skin uptake,[4]; 30 min,0.28 ± 0.01 %ID/g
same,Spleen uptake,[4]; 30 min,1.03 ± 0.18 %ID/g
same,Blood uptake,[4]; 60 min,0.18 ± 0.02 %ID/g
same,Brain uptake,[4]; 60 min,0.42 ± 0.04 %ID/g
same,Heart uptake,[4]; 60 min,0.30 ± 0.10 %ID/g
same,Kidney uptake,[4]; 60 min,0.84 ± 0.09 %ID/g
same,Liver uptake,[4]; 60 min,2.47 ± 0.30 %ID/g
same,Lung uptake,[4]; 60 min,0.54 ± 0.14 %ID/g
same,Muscle uptake,[4]; 60 min,0.13 ± 0.01 %ID/g
same,Pancreas uptake,[4]; 60 min,4.98 ± 0.24 %ID/g
same,Skin uptake,[4]; 60 min,0.23 ± 0.04 %ID/g
same,Spleen uptake,[4]; 60 min,0.83 ± 0.18 %ID/g
same,Blood uptake,[4]; 120 min,0.12 ± 0.03 %ID/g
same,Brain uptake,[4]; 120 min,0.35 ± 0.02 %ID/g
same,Heart uptake,[4]; 120 min,0.22 ± 0.01 %ID/g
same,Kidney uptake,[4]; 120 min,0.55 ± 0.06 %ID/g
same,Liver uptake,[4]; 120 min,1.47 ± 0.13 %ID/g
same,Lung uptake,[4]; 120 min,0.35 ± 0.03 %ID/g
same,Muscle uptake,[4]; 120 min,0.10 ± 0.01 %ID/g
same,Pancreas uptake,[4]; 120 min,2.76 ± 0.61 %ID/g
same,Skin uptake,[4]; 120 min,0.16 ± 0.02 %ID/g
same,Spleen uptake,[4]; 120 min,0.48 ± 0.04 %ID/g
same,"Pancreas uptake, Control",[1]; [10],2.19 %ID/g
same,"Pancreas uptake, Pretreatment",[1]; [11],0.32 %ID/g
"COc1cc2c(cc1OCCC[18F])CCN1CC(CC(C)C)C(C3CO3)CC21 (stereo not drawn) [[^18F](+)4] [[^18F](+)-2-Oxiranyl-3-isobutyl-9-(3-fluoropropoxy)-10-methoxy-2,3,4,6,7, 11b-hexahydro-1H-pyrido[2,1-a]isoquinoline]","Pancreas uptake, Pretreatment",[3]; [9],1.11 %ID/g
same,"Pancreas uptake, Control",[1]; [10],2.19 ± 0.37 %ID/g
same,"Blood uptake, Pretreatment",[1]; [11],0.06 ± 0.01 %ID/g
same,"Pancreas uptake, Pretreatment",[1]; [11],0.32 ± 0.07 %ID/g
same,Time of peak uptake and retention in the pancreas,[5],around 60 min
same,Blood uptake,"[6]; 2 min, n=3",0.27 %ID/g
same,Bone uptake,"[6]; 2 min, n=3",0.29 %ID/g
same,Brain uptake,"[6]; 2 min, n=3",0.95 %ID/g
same,Heart uptake,"[6]; 2 min, n=3",0.48 %ID/g
same,Kidney uptake,"[6]; 2 min, n=3",4.60 %ID/g
same,Liver uptake,"[6]; 2 min, n=3",3.28 %ID/g
same,Lung uptake,"[6]; 2 min, n=3",0.79 %ID/g
same,Muscle uptake,"[6]; 2 min, n=3",1.00 %ID/g
same,Pancreas uptake,"[6]; 2 min, n=3",1.64 %ID/g
same,Skin uptake,"[6]; 2 min, n=3",0.21 %ID/g
same,Spleen uptake,"[6]; 2 min, n=3",1.36 %ID/g
same,Blood uptake,"[6]; 30 min, n=3",0.15 %ID/g
same,Brain uptake,"[6]; 30 min, n=3",0.30 %ID/g
same,Heart uptake,"[6]; 30 min, n=3",0.11 %ID/g
same,Kidney uptake,"[6]; 30 min, n=3",3.59 %ID/g
same,Liver uptake,"[6]; 30 min, n=3",1.02 %ID/g
same,Lung uptake,"[6]; 30 min, n=3",0.48 %ID/g
same,Pancreas uptake,"[6]; 30 min, n=3",1.96 %ID/g
same,Skin uptake,"[6]; 30 min, n=3",0.14 %ID/g
same,Spleen uptake,"[6]; 30 min, n=3",0.26 %ID/g
same,Blood uptake,"[6]; 60 min, n=7",0.10 %ID/g
same,Bone uptake,"[6]; 60 min, n=7",0.23 %ID/g
same,Brain uptake,"[6]; 60 min, n=7",0.32 %ID/g
same,Heart uptake,"[6]; 60 min, n=7",0.07 %ID/g
same,Kidney uptake,"[6]; 60 min, n=7",2.21 %ID/g
same,Liver uptake,"[6]; 60 min, n=7",0.67 %ID/g
same,Lung uptake,"[6]; 60 min, n=7",0.14 %ID/g
same,Muscle uptake,"[6]; 60 min, n=7",0.04 %ID/g
same,Pancreas uptake,"[6]; 60 min, n=7",2.68 %ID/g
same,Skin uptake,"[6]; 60 min, n=7",0.09 %ID/g
same,Spleen uptake,"[6]; 60 min, n=7",0.16 %ID/g
same,Blood uptake,"[6]; 120 min, n=7",0.04 %ID/g
same,Bone uptake,"[6]; 120 min, n=7",0.22 %ID/g
same,Brain uptake,"[6]; 120 min, n=7",0.24 %ID/g
same,Heart uptake,"[6]; 120 min, n=7",0.02 %ID/g
same,Kidney uptake,"[6]; 120 min, n=7",1.58 %ID/g
same,Liver uptake,"[6]; 120 min, n=7",0.54 %ID/g
same,Lung uptake,"[6]; 120 min, n=7",0.05 %ID/g
same,Muscle uptake,"[6]; 120 min, n=7",0.02 %ID/g
same,Pancreas uptake,"[6]; 120 min, n=7",1.33 %ID/g
same,Skin uptake,"[6]; 120 min, n=7",0.04 %ID/g
same,Spleen uptake,"[6]; 120 min, n=7",0.08 %ID/g
same,Blood uptake,"[6]; 240 min, n=4",0.02 %ID/g
same,Bone uptake,"[6]; 240 min, n=4",0.27 %ID/g
same,Brain uptake,"[6]; 240 min, n=4",0.28 %ID/g
same,Heart uptake,"[6]; 240 min, n=4",0.01 %ID/g
same,Kidney uptake,"[6]; 240 min, n=4",2.01 %ID/g
same,Liver uptake,"[6]; 240 min, n=4",0.54 %ID/g
same,Lung uptake,"[6]; 240 min, n=4",0.03 %ID/g
same,Muscle uptake,"[6]; 240 min, n=4",0.01 %ID/g
same,Pancreas uptake,"[6]; 240 min, n=4",0.81 %ID/g
same,Skin uptake,"[6]; 240 min, n=4",0.02 %ID/g
same,Spleen uptake,"[6]; 240 min, n=4",0.04 %ID/g
